{"source": "patent US20260166082A1", "about": "“METHODS OF TREATMENT WITH T CELL THERAPY AND IMMUNOMODULATORY AGENT MAINTENANCE THERAPY” (Celgene Corporation, priority 2022, published 2026)", "key": {"minimal residual disease": {"system": "minimal residual disease", "assay": "Example 1: MRD negativity by next-generation sequencing and EuroFlow", "format": "in vivo, human", "details": "subjects on lenalidomide maintenance after anti-BCMA CAR-T cells, subsequent analysis", "procedure": "Exploratory endpoints, which included assessment of biomarkers (serum level of soluble BCMA (sBCMA) and inflammatory cytokines) by Luminex assay and minimal residual disease negativity (MRD−) by using aggregation of next-generation sequencing and 8-color flow cytometry (EuroFlow; sensitivity <10^−5 nucleated cells) data with interpolation to reduce missing/indeterminate data points. sBCMA levels were evaluated at leukapheresis; baseline; days 1, 4, and 8; and until disease progression. Plasma levels of immune-related inflammatory cytokines (interferon-γ (IFNγ), interleukin-6 (IL-6), interleukin-8 (IL-8) and interleukin-10 (IL-10)) were evaluated at leukapheresis; baseline; days 1-8, 10, 12, 15 18 and 22; and months 2 and 4. Efficacy and safety were analyzed in all subjects who received anti-BCMA CAR-T cells. PK, sBCMA, and MRD-were analyzed in evaluable subjects."}, "[1]": {"system": "patients with multiple myeloma following ASCT", "details": "maintenance with lenalidomide following ASCT; 22.1 months follow up; cited from earlier work"}}}
{"smiles": "Nc1cccc2c1CN(C1CCC(=O)NC1=O)C2=O", "note": "(centres unmarked) [lenalidomide, 3-(4-amino-1-oxo-1,3-dihydro-2H-isoindol-2-yl) piperidine-2,6-dione]", "values": [{"measurement": "MRD-negativity maintained at 36 months", "setting": "minimal residual disease; 2/3 evaluable", "result": 66.7, "unit": "%"}, {"measurement": "MRD-negativity maintained at 12 months", "setting": "minimal residual disease; 4/6 evaluable", "result": 66.7, "unit": "%"}, {"measurement": "MRD-negativity maintained at 24 months", "setting": "minimal residual disease; 4/6 evaluable", "result": 66.7, "unit": "%"}, {"measurement": "complete response rate", "setting": "[1]", "result": 60.9, "unit": "%"}, {"measurement": "patients achieving minimal residual disease negativity", "setting": "[1]", "result": 20.4}]}
